Reference: patent US20130116219A1, “ANTIMICROBIAL CARBOLINE COMPOUNDS” (ALCON RESEARCH, LTD., priority 2011, published 2013)
≈ marks a conversion by molar mass, not a printed value.

Tests used:
Ad8 = assay: Plaque reduction assay in A549 cells, Ad8; assay type: cell-based; settings: unidentified adenovirus, A549, 168 h, read-out: Adenovirus Serotype EC50 (μg/mL) Ad8
Method: (§1) Compounds of the present invention were tested for potency against AdV serotypes Ad3, Ad4, Ad5, Ad7a, Ad8, Ad19, and Ad37 in a plaque reduction assay, a cell-based assay of AdV replication. Ad8, Ad19, and Ad37 are the serotypes most commonly associated with epidemic keratoconjunctivitis (EKC). Ad3, Ad4, and Ad7a are serotypes most commonly associated with follicular conjunctivitis and serotype Ad5 can replicate in the NZW rabbit model of adenoviral ocular keratitis. Ad3, Ad4, Ad5, Ad7a, Ad8, and Ad19 were recovered at the Charles T. Campbell Ophthalmic Microbiology Laboratory from patients presenting with typical adenoviral ocular disease. No clinical isolates of Ad37 were available, so the ATCC (American Type Culture Collection, Manassas, Va.) reference strain of Ad37 was used.
(§2) EC50 values (μg/ml) for inhibition of adenoviral replication were determined by plaque reduction assay. Briefly, cultured A549 cells were inoculated with approximately 100 pfu of the indicated adenovirus serotype. Inoculated cells were overlaid with methylcellulose medium containing Compound 2 at 100, 10, 1, 0.1, 0.01, and 0.001 μg/ml, and incubated at 37° C./5% CO2 for approximately 7 d. Plates were stained with gentian violet, and plaques were counted in a 25× dissecting microscope. IC50, the concentration that inhibited plaque formation by 50%, was estimated from plots of mean plaque count vs. concentration.

Ad3 = assay: Plaque reduction assay in A549 cells, Ad3; assay type: cell-based; settings: unidentified adenovirus, 168 h, approximately 7 d, read-out: Adenovirus Serotype EC50 (μg/mL) Ad3
Method: as §1, §2

Ad19 = assay: Plaque reduction assay in A549 cells, Ad19; assay type: cell-based; settings: unidentified adenovirus, 168 h, approximately 7 d, read-out: Adenovirus Serotype EC50 (μg/mL) Ad19
Method: as §1, §2

Ad4 = assay: Plaque reduction assay in A549 cells, Ad4; assay type: cell-based; settings: unidentified adenovirus, 168 h, approximately 7 d, read-out: Adenovirus Serotype EC50 (μg/mL) Ad4
Method: as §1, §2

Ad5 [1] = assay: Ad5 genome replication assay (cell-based QPCR) in A549 cells; settings: Human adenovirus sp., A549, 72 h, read-out: Ad5 qPCR EC50 (μM)
Method: Compounds of the present invention were tested for potency against Ad5 in an Ad5 genome replication assay, a cell-based QPCR assay of Ad5 genome replication in A549 cells, a human lung carcinoma cell line. Serotype of human Ad5, used in this replication assay can also replicate in a NZW rabbit model of adenoviral ocular keratitis.
EC50 values (μM) for inhibition of adenoviral replication were determined by QPCR. Briefly, 10,000 cultured A549 cells were inoculated with 25,000 pfu/well for 3 hrs in 2% FBS F12-K A549 culture media. Following inoculation, A549 cells were treated with log unit dilutions of compound of Formula I (˜10 μM thru˜10 pM) in 10% FBS F12-K culture media with 0.3% DMSO for an additional 3 days. Cell viability was assessed with Alamar Blue (10 μl/well for 2 hrs; fluorescence Ex353; Em595 nm). Plates were washed 3 times with 125 μl PBS, cell lysates were prepared for QPCR analysis using Cells to SNP kit (Life Technologies). Ad5 genome levels per cell were determined with RNaseP and Ad5 hexon Taqman Assays (Life Technologies). EC50, the concentration that inhibited Ad5 genome replication formation by 50%, was estimated from plots of Ad5 genomes/cell vs. compound concentration.

Ad37 = assay: Plaque reduction assay in A549 cells, Ad37; assay type: cell-based; settings: unidentified adenovirus, 168 h, approximately 7 d, ATCC reference strain, read-out: Adenovirus Serotype EC50 (μg/mL) Ad37
Method: as §1, §2

Ad5 [2] = assay: Plaque reduction assay in A549 cells, Ad5; assay type: cell-based; settings: unidentified adenovirus, A549, 168 h, read-out: Adenovirus Serotype EC50 (μg/mL) Ad5
Method: as §1, §2

Ad7a = assay: Plaque reduction assay in A549 cells, Ad7a; assay type: cell-based; settings: unidentified adenovirus, 168 h, approximately 7 d, read-out: Adenovirus Serotype EC50 (μg/mL) Ad7a
Method: as §1, §2

SMILES	EC50 (Ad8) [µg/mL]	EC50 (Ad3) [µg/mL]	EC50 (Ad19) [µg/mL]	EC50 (Ad4) [µg/mL]	EC50 (Ad5 [1]) [µM]	EC50 (Ad37) [µg/mL]	EC50 (Ad5 [2]) [µg/mL]	EC50 (Ad7a) [µg/mL]
CC(C)C[C@H]1c2[nH]c3ccc(Cl)cc3c2CCN1C(=O)CCN1CCN(CC(F)F)CC1 [Compound 73, (S)-1-(6-chloro-1-isobutyl-3,4-dihydro-1H-pyrido[3,4-b]indol-2(9H)-yl)-3-(4-(2,2-difluoroethyl)piperazin-1-yl)propan-1-one]	0.1 to 1 (≈ 0.214 to 2.14 µM)	0.1 to 1 (≈ 0.214 to 2.14 µM)	> 1	0.1 to 1 (≈ 0.214 to 2.14 µM)	0.1 to 1	> 1	0.1 to 1 (≈ 0.214 to 2.14 µM)	0.1 to 1 (≈ 0.214 to 2.14 µM)
CC(C)C[C@H]1c2[nH]c3ccc(Cl)cc3c2CCN1C(=O)CCN1CCC(F)(F)CC1 [Compound 6, (S)-1-(6-chloro-1-isobutyl-3,4-dihydro-1H-pyrido[3,4-b]indol-2(9H)-yl)-3-(4,4-difluoropiperidin-1-yl)propan-1-one]	< 0.1	< 0.1	< 0.1	0.1 to 1 (≈ 0.228 to 2.28 µM)	< 0.1	< 0.1	< 0.1	< 0.1
CC(C)C[C@H]1c2[nH]c3ccc(Cl)cc3c2CCN1C(=O)CNC1CC1 [Compound 91, (S)-1-(6-chloro-1-isobutyl-3,4-dihydro-1H-pyrido[3,4-b]indol-2(9H)-yl)-2-(cyclopropylamino)ethanone]	0.1 to 1 (≈ 0.278 to 2.78 µM)	0.1 to 1 (≈ 0.278 to 2.78 µM)	0.1 to 1 (≈ 0.278 to 2.78 µM)	0.1 to 1 (≈ 0.278 to 2.78 µM)	< 0.1	0.1 to 1 (≈ 0.278 to 2.78 µM)	< 0.1	0.1 to 1 (≈ 0.278 to 2.78 µM)
CC(C)C[C@H]1c2[nH]c3ccc(Cl)cc3c2CCN1C(=O)CCN1CC[C@H](F)C1 [Compound 35, 1-((S)-6-chloro-1-isobutyl-3,4-dihydro-1H-pyrido[3,4-b]indol-2(9H)-yl)-3-((S)-3-fluoropyrrolidin-1-yl)propan-1-one]	0.1 to 1 (≈ 0.246 to 2.46 µM)	0.1 to 1 (≈ 0.246 to 2.46 µM)	0.1 to 1 (≈ 0.246 to 2.46 µM)	> 1	0.1 to 1	0.1 to 1 (≈ 0.246 to 2.46 µM)	0.1 to 1 (≈ 0.246 to 2.46 µM)	0.1 to 1 (≈ 0.246 to 2.46 µM)
CC(C)C[C@H]1c2[nH]c3ccc(Cl)cc3c2CCN1C(=O)CCC1CCCCC1 [Compound 43, (S)-1-(6-chloro-1-isobutyl-3,4-dihydro-1H-pyrido[3,4-b]indol-2(9H)-yl)-3-cyclohexylpropan-1-one]	< 0.1	0.1 to 1 (≈ 0.249 to 2.49 µM)	< 0.1	0.1 to 1 (≈ 0.249 to 2.49 µM)	< 0.1	< 0.1	< 0.1	< 0.1
CC(C)C[C@H]1c2[nH]c3ccc(Cl)cc3c2CCN1C(=O)C1CN(CCC(F)(F)F)C1 [Compound 47, (S)-(6-chloro-1-isobutyl-3,4-dihydro-1H-pyrido[3,4-b]indol-2(9H)-yl)(1-(3,3,3-trifluoropropyl)azetidin-3-yl)methanone]	0.1 to 1 (≈ 0.226 to 2.26 µM)	0.1 to 1 (≈ 0.226 to 2.26 µM)	0.1 to 1 (≈ 0.226 to 2.26 µM)	0.1 to 1 (≈ 0.226 to 2.26 µM)	0.1 to 1	0.1 to 1 (≈ 0.226 to 2.26 µM)	0.1 to 1 (≈ 0.226 to 2.26 µM)	0.1 to 1 (≈ 0.226 to 2.26 µM)
CC(C)C[C@H]1c2[nH]c3ccc(Cl)cc3c2CCN1CCN1CCC(F)(F)CC1 [Compound 110, (S)-6-chloro-2-(2-(4,4-difluoropiperidin-1-yl)ethyl)-1-isobutyl-2,3,4,9-tetrahydro-1H-pyrido[3,4-b]indole]					0.1 to 1			
CC(C)CC1c2[nH]c3ccc(Cl)cc3c2CCN1C(=O)CCc1ccccc1 (stereo not shown) [Compound 1]					0.1 to 1			
Cc1nnc(CCC(=O)N2CCc3c([nH]c4ccc(Cl)cc34)C2CC(C)C)o1 (stereo not shown) [Compound 82]					0.1 to 1			
CC(C)CC1c2[nH]c3ccc(Cl)cc3c2CCN1CC(=O)NC1CCCCC1 (stereo not shown) [Compound 79]					0.1 to 1			
CC(C)CC1c2[nH]c3ccc(Cl)cc3c2CCN1C(=O)CCc1ccco1 (stereo not shown) [Compound 58]					< 0.1			
O=C(CCC1CCCCC1)N1CCc2c([nH]c3ccc(Cl)cc23)C1CN1CCCCC1 (stereo not shown) [Compound 80]					> 1			
CC(C)C[C@H]1c2[nH]c3ccc(Cl)cc3c2CCN1C(=O)CNC1CC(F)(F)C1 [Compound 104, (S)-1-(6-chloro-1-isobutyl-3,4-dihydro-1H-pyrido[3,4-b]indol-2(9H)-yl)-2-((3,3-difluorocyclobutyl)amino)ethanone]					< 0.1			
O=C(CCN1CCC(F)(F)CC1)N1CCc2c([nH]c3ccc(Cl)cc23)C1c1ccc(F)cc1 (stereo not shown) [Compound 5]					> 1			
COc1ccc2[nH]c3c(c2c1)CCN(C(=O)CCN1CCC(F)(F)CC1)C3CC(C)C (stereo not shown) [Compound 51]					0.1 to 1			
CCCCN1CC(F)(C(=O)N2CCc3c([nH]c4ccc(Cl)cc34)C2CC(C)C)C1 (stereo not shown) [Compound 106]					< 0.1			
O=C(CCN1CCC(C(F)F)CC1)N1CCc2c([nH]c3ccc(Cl)cc23)C1CC1CCCC1 (stereo not shown) [Compound 31]					0.1 to 1			
O=C(CCC1CCCCC1)N1CCc2c([nH]c3ccc(Cl)cc23)C1CN1CCC(F)(F)CC1 (stereo not shown) [Compound 78, 1-(6-chloro-1-1((4,4-difluoropiperidin-1-yl)methyl)-3,4-dihydro-1H-pyrido[3,4-b]indol-2(9H)-yl)-3-cyclohexylpropan-1-one]					0.1 to 1			
CC(C)CC1c2[nH]c3ccc(Cl)cc3c2CCN1C(=O)Cc1cccnc1 (stereo not shown) [Compound 60]					> 1			
